Assay results from patent US20140179607A9 (IRONWOOD PHARMACEUTICALS, INC, priority 2009, published 2014).
Positions of bridges follow the written chain, without caps; N, C: chain ends. Non-standard residues stand in square brackets, D forms with d. Residues, ends and D or L forms follow the SMILES beside them. pS = N[C@@H](COP(=O)(O)O)C(=O)O

Columns and labels:
[1] = target: T1, Calf intestinal alkaline phosphatase (CIP) (Bos taurus, UniProt P19111); experiment: Alkaline phosphatase reaction (dephosphorylation of peptide substrates, LCMS); type: in vitro ADME
T1 construct: purchased New England BioLabs, Ipswich, Mass; M0290S
Protocol: (§1) For the alkaline phosphatase reactions, peptide stocks were prepared at 1 mg/mL in 0.1 M Tris-HCl pH 8, which were stored at −20° C. until assays were conducted. For the acid phosphatase reactions, peptide stocks were prepared at 1 mg/mL in 50 mM sodium phosphate pH 6, which was stored at −20° C. until assays were conducted.
Calf intestinal alkaline phosphatase (CIP) was obtained from New England BioLabs, Ipswich, Mass. Cat # M0290S. The CIP reaction solution was prepared by dilution with buffer (50 mM KCl, 10 mM Tris-HCl pH 8, 1 mM MgCl2, 50% glycerol) to 0.5 units/μL. The alkaline phosphatase reaction solutions were assembled in 20 μL quantities containing: • 2 μL 10× CIP buffer (1M NaCl, 500 mM Tris-HCl pH 8, 100 mM MgCl2) • 2 μL peptide stock (1 mg/mL) • 12 μL H2O • 4 μL alkaline phosphatase (0, 0.5 or 2 units)
The reaction solutions were mixed gently and incubated for 90 minutes at 37° C. These reaction solutions were stored at −20° C. until analysis. For analysis, the reaction solutions were diluted from 7.5 μL of CIP treated peptide to 50 μL with 0.1% formic acid in water to a final concentration of 10 μM.
Control reactions were assembled for enzyme activity containing 10 mM p-nitrophenylphosphate in place of peptide. After incubation, the reactions were diluted with 0.1 mL of 100 mM borate buffer pH 9 and read at the absorbance of 405 nm to monitor p-nitrophenol appearance.

[2] = In vitro metabolism in mouse jejunum loop fluid; type: in vitro ADME; conditions: for metabolism in mouse jejunum fluid (words) / remaining at 2 h, 100 μg/mL: 37° C.; for metabolism in mouse jejunum fluid (words): up to 120 minutes; for remaining at 2 h, 100 μg/mL: mouse jejunum loop fluid, pH 8, mouse jejunal loop fluid, after 120 minutes, read-out: percent remaining
Protocol: The purpose of this study was to determine the stability of phosphorylated peptides in mouse jejunal loop fluid. […] The isotopically labeled peptide 2 was synthesized with ^13C, ^15N-labeled alanine and leucine (i.e., with a sequence CCpS[^13C6, ^15N]LCCNP[^13C6, ^15N]ACTGC).
Each peptide was synthesized by American Peptide Company, Inc., and was stored desiccated at −20° C. A 1 mg/mL solution for each of the non-labeled peptides was prepared in 1 M tris (hydroxymethyl) aminomethane hydrochloride (Tris-HCl), pH 8 just prior to conducting the mouse intestinal loop fluid assay. A 500 ng/mL solution of ^13C, ^15N-labeled peptide 2 was prepared in 0.1% formic acid in water and was utilized to dilute the jejunum samples for post-assay LC-MS/MS analysis.
To collect the fluid, mice were fasted overnight with full access to water. They were then anesthetized with isofluorane for surgery and subjected to laparotomy in which the small intestine was exteriorized. Jejunum loops of 3 to 4 cm in length were made with sutures starting at 7 cm from the pyloric sphincter of the stomach. Once the loops were formed, they were injected with 200 μL of phosphate buffered saline (PBS) buffer (10 mM, pH 7.4). The abdominal wall and skin of the animals were then sutured, and the animals were allowed to recover for 30 minutes. Following recovery, the animals were sacrificed, the loops were then excised and the fluid inside was recovered and stored at −80° C. until use.
For each peptide, 25 μL of the 1 mg/mL peptide stock solution was added to 25 μL of 1 M Tris-HCl and 25 μL of 10× calf intestinal phosphatase (CIP) buffer containing 500 mM Tris-HCl, 1 M sodium chloride (NaCl), 0.1 mM magnesium chloride (MgCl2), pH 8. The reactions were initiated by adding 175 μL of the mouse jejunum loop fluid or 175 μL of the 1 M Tris-HCl pH8 buffer for the control reactions. The final concentration of each peptide was 100 μg/mL. The reactions were continuously mixed and maintained at 37° C. on a plate shaker. At 0, 2, 5, 10, 20, 30, 60, 90 and 120 minutes after adding the mouse intestinal loop fluid, a 25 μL aliquot was taken and added to 25 μL of 4° C. 12% trichloroacetic acid to stop the reaction. An additional 200 μL of 0.1% formic acid in water was added to these reactions for dilution purposes. These samples were then further diluted by taking 20 μL of each sample and adding it to 480 μL of 0.1% formic acid in water containing 500 ng/mL of the internal standard 13C, 15N -labeled peptide 2.
All samples were analyzed using an Applied Biosystems/MDS SCIEX API 4000 triple quadrupole mass spectrometer equipped with a high-performance liquid chromatography (HPLC) system. The mass spectrometer was operated in multiple reaction monitoring (MRM) mode, with resolution set to 1.2 Da.
The LC-MS/MS data were processed using Analyst version 1.4.2 software (Applied Biosystems/MDS SCIEX). The peak area ratio (ratio of analyte peak area to internal standard peak area) was used to calculate the percent remaining of each peptide.

[3] = tested on: Potato acid phosphatase (PoAP); experiment: Acid phosphatase reaction, potato acid phosphatase; type: in vitro ADME; conditions: Potato acid phosphatase pH 5, 90 minutes at 37° C.
Protocol: as §1
(§2) Potato acid phosphatase (PoAP) was obtained from Sigma, St. Louis, Miss. Cat #P1146 and human prostate acid phosphatase (HuPrAP) was obtained from MP Biochemicals, Solon, Ohio. Cat # 153872. The acid phosphatases were dissolved to provide a solution containing 0.5 units AP/μL using 50 mM sodium acetate pH 5, 0.2 mM MgCl2. The acid phosphatase reactions were assembled in 20 μL quantities containing: • 2 μL 10× acid phosphatase buffer (500 mM sodium acetate pH 5, 2 mM MgCl2) • 2 μL peptide stock (1 mg/mL) • 12 μL H2O • 4 μL acid phosphatase (0.5 or 2 units)
(§3) The reaction solutions were mixed gently and incubated for 90 minutes at 37° C. The reaction solutions were stored at −20° C. for later analysis. For analysis, 7.5 μL acid phosphatase reactions were diluted to 50 μL with 0.1% formic acid in water to a final concentration of 10 μM. The control reactions for enzyme activity were assembled and diluted to 10 mM p-nitrophenylphosphate in place of peptide. After incubation, the reactions were diluted with 0.1 mL of 100 mM borate buffer pH 9 and read at the absorbance of 405 nm to monitor p-nitrophenol appearance.

[4] = target: T2, human prostate acid phosphatase (HuPrAP) (Homo sapiens, UniProt P15309); experiment: Acid phosphatase reaction, human prostate acid phosphatase; type: in vitro ADME; conditions: Human prostatic acid phosphatase pH 5, 90 minutes at 37° C.
T2 construct: purchased MP Biochemicals, Solon, Ohio 153872
T2 sequence (P15309 33-386): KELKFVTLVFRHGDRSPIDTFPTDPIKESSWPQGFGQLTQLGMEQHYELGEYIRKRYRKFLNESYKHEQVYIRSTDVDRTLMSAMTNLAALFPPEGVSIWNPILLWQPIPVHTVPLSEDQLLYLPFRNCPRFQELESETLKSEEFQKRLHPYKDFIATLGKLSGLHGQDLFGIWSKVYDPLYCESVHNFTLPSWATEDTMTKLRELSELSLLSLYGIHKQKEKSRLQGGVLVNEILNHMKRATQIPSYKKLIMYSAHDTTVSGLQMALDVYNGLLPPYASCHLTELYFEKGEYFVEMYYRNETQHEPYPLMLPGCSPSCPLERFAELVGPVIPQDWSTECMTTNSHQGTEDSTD
Protocol: as §1, §2, §3

[5] = oral administration at therapeutic dose levels; cited from earlier work
[6] = tested on: Calf intestinal alkaline phosphatase (CIP); experiment: Calf intestinal alkaline phosphatase (CIP) in CIP buffer (NaCl, Tris-HCl pH 8, MgCl2); conditions: 37° C., up to 90 minutes
[7] = tested on: human prostate acid phosphatase (HuPrAP); experiment: human prostate acid phosphatase (HuPrAP) in sodium acetate pH 5, MgCl2; conditions: 37° C., up to 90 minutes
[8] = mouse jejunum loop fluid (loops injected with 200 μL PBS, fluid recovered after 30 minutes); conditions: 37° C., up to 120 minutes
[9] = tested on: Potato acid phosphatase (PoAP); experiment: Potato acid phosphatase (PoAP) in sodium acetate pH 5, MgCl2; conditions: 37° C., up to 90 minutes
[10] = Alkaline phosphatase pH 8, 90 minutes at 37° C.

T1 sequence (P19111 20-506): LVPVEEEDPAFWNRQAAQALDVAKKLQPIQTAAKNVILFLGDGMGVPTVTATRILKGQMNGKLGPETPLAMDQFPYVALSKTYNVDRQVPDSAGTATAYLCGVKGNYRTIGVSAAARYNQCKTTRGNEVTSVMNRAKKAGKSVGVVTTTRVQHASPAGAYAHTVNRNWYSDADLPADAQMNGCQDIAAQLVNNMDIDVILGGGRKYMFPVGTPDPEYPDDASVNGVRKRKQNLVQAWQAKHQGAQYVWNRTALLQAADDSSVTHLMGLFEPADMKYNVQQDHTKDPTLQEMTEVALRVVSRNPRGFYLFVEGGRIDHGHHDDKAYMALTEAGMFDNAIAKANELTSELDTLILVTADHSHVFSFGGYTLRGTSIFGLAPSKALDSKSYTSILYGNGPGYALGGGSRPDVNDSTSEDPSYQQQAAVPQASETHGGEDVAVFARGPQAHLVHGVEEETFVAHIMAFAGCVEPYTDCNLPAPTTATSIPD

Compound: CC(C)C[C@@H]1NC(=O)[C@H](CCC(=O)O)NC(=O)[C@@H]2CSSC[C@@H]3NC(=O)[C@H](C)NC(=O)[C@@H]4CCCN4C(=O)[C@H](CC(N)=O)NC(=O)[C@H](CSSC[C@H](N)C(=O)N2)NC(=O)[C@H](CSSC[C@@H](C(=O)N[C@@H](Cc2ccc(O)cc2)C(=O)O)NC(=O)CNC(=O)[C@H]([C@@H](C)O)NC3=O)NC1=O [Peptide 3, CCELCCNPACTGCY] (H-CCELCCNPACTGCY-OH; disulfide 1-6, 2-10, 5-13 (inferred); N-terminus and C-terminus assumed)
- Effect of CIP treatment on peptide (LC-MS) ([1]; with and without calf intestinal alkaline phosphatase, data not shown): not affected by CIP treatment
- metabolism in mouse jejunum fluid (words) [2]: not detected after 90 minutes
- metabolism in mouse jejunum fluid (words) ([2]; listed as peptide 3): degraded faster in mouse intestinal fluid than peptide 2

Compound: O=[N+]([O-])c1ccc(OP(=O)(O)O)cc1 [p-nitrophenylphosphate, reference compound]
- Dephospho (%) [3]: 100%
- Remaining (%) [3]: 0%
- Dephospho (%) [4]: 100%
- Remaining (%) [4]: 0%
- Dephospho (%) [1, 10]: 100%
- Remaining (%) [1, 10]: 0%

Compound: CC(C)C[C@@H]1NC(=O)[C@H](COP(=O)(O)O)NC(=O)[C@@H]2CSSC[C@@H]3NC(=O)[C@H](C)NC(=O)[C@@H]4CCCN4C(=O)[C@H](CC(N)=O)NC(=O)[C@H](CSSC[C@H](N)C(=O)N2)NC(=O)[C@H](CSSC[C@@H](C(=O)O)NC(=O)CNC(=O)[C@H]([C@@H](C)O)NC3=O)NC1=O [Peptide 2, CCpSLCCNPACTGC] (H-CC[pS]LCCNPACTGC-OH; disulfide 1-6, 2-10, 5-13 (inferred); N-terminus and C-terminus assumed)
- Dephospho (%) [4]: 4.1%
- remaining at 1.5 h, 0.1 mg/mL ([4]; human prostate acid phosphatase (HuPrAP)): 95.9%
- Dephospho (%) [1, 10]: 100%
- remaining at 1.5 h, 0.1 mg/mL ([1]; calf, calf intestinal alkaline phosphatase (CIP), Alkaline phosphatase pH 8, 90 minutes at 37° C.): 0%
- formation of metabolite dephospho-peptide 2 ([2]; mouse jejunum loop fluid at 37° C.): Formation of dephospho-peptide 2 was observed
- remaining at 2 h, 100 μg/mL [2]: 5.3%

Compound: C[C@@H]1NC(=O)[C@@H]2CCCN2C(=O)[C@H](CC(N)=O)NC(=O)[C@@H]2CSSC[C@H](N)C(=O)N[C@H]3CSSC[C@H](NC1=O)C(=O)N[C@@H]([C@@H](C)O)C(=O)NCC(=O)N[C@H](C(=O)N[C@@H](Cc1ccc(O)cc1)C(=O)O)CSSC[C@H](NC(=O)[C@H](Cc1ccc(O)cc1)NC(=O)[C@H](CCC(=O)O)NC3=O)C(=O)N2 [linaclotide] (H-CCEYCCNPACTGCY-OH; disulfide 1-6, 2-10, 5-13)
- levels seen systemically after oral administration [5]: no detectable levels

Compound: CCELCCNPACTGCY
- not cleaved [6]: not affected by CIP treatment

Compound: CC(C)C[C@@H]1NC(=O)[C@H](CO)NC(=O)[C@@H]2CSSC[C@@H]3NC(=O)[C@H](C)NC(=O)[C@@H]4CCCN4C(=O)[C@H](CC(N)=O)NC(=O)[C@H](CSSC[C@H](N)C(=O)N2)NC(=O)[C@H](CSSC[C@@H](C(=O)O)NC(=O)CNC(=O)[C@H]([C@@H](C)O)NC3=O)NC1=O [Dephospho-Peptide 2, CCSLCCNPACTGC] (H-CCSLCCNPACTGC-OH; disulfide 1-6, 2-10, 5-13 (inferred); N-terminus and C-terminus assumed)
- metabolism in mouse jejunum fluid (words) [2]: degraded faster in mouse intestinal fluid than peptide 2
- remaining at 2 h, 100 μg/mL [2]: 5.6%

Compound: CCpSLCCNPACTGC
- fragment found [6]: Dephospho-Peptide 2
- fragment found [7]: Dephospho-Peptide 2
- fragment found [8]: dephospho-peptide 2

Compound: CCpSLCCNPACTGCY
- fragment found [9]: Dephospho-Peptide 1
- fragment found [6]: Dephospho-Peptide 1
- fragment found [7]: Dephospho-Peptide 1
